{"source": "paper PMC8036603", "about": "“Small Molecule Inhibitors of White Spot Syndrome Virus: Promise in Shrimp Seedling Culture” (International Journal of Molecular Sciences, 2021)", "assay_type_in_all_cases": "in vivo, Litopenaeus vannamei", "key": {"[1]": {"tested_on": "white spot syndrome virus (WSSV)", "assay": "Anti-WSSV activity in shrimp larvae, co-incubation, copy number of viral genome by RT-qPCR", "details": "for copy number of the viral genome in sick or dead shrimp homogenates: 24, 48 and 72 hpi, up to 10 mg/L; for inhibitory efficiency on WSSV replication: six-point dose-response, viral genome copy number in larvae"}, "[2]": {"tested_on": "Shrimp (L. vannamei) larvae", "assay": "Acute toxicity assay in shrimp larvae", "details": "after 72 h of exposure", "method": "Shrimp (L. vannamei) larvae (total length: 0.5 ± 0.04 cm, body weight: 4.2 ± 0.4 mg, mean ± SD) were provided by Zhejiang Mariculture Research Institute Qingjiang Station (Wenzhou, China). The larvae were maintained in a culture pond at 28 °C, fed four times a day with commercial feed pellets, and collected randomly for PCR testing to verify the WSSV-free status prior to the trial.\nAcute toxicity of the coumarin derivatives was investigated by exposing larvae to a range of compound concentrations, from 0.1 mg/L to 100 mg/L of coumarin derivatives, where the dose setting was based on the data from preliminary tests in our laboratory. A DMSO-control (2%, v/v, the highest percentage of DMSO in treatments) served as the control. During the experiment, every 20 larvae were moved into six-well plates filled with 6 mL/per well freshly prepared test solutions for a 72-h incubation at 28 °C with a natural photoperiod. […] To avoid deterioration of water quality, dead shrimps were immediately removed at the point of observation. Three replicate experiments were performed.\nCompound response curves were represented by a logistic sigmoidal function with a maximal effect level (Amax) and Hill coefficient representing the sigmoidal transition (Origin 8.1; http://www.originlab.com, accessed on 25 March 2021). Statistical analyses were performed using SPSS (version 18.0) statistical software (SPSS Inc., Chicago, IL, USA). The LC50 and EC50 values with 95% CIs were calculated using probit analysis. Virus titers were log10-transformed prior to statistical analyses. Unpaired Student’s t-tests were used to compare coumarin-treated samples and negative-control DMSO samples for determining significance and data are presented as mean values ± SD."}, "[3]": {"tested_on": "white spot syndrome virus (WSSV)", "assay": "Horizontal transmission of WSSV to naive recipient larvae", "details": "10 mg/L, each time point", "method": "Shrimp larvae were infected with 1.6 × 10^5 copies/µL WSSV or aquacultural water only. At 24 hpi, a total of the 12 donor shrimps were placed into each challenge beaker (100 mL of water and a continuous air supply), and C2 (10 mg/L final concentration) or DMSO (0.2‰ final concentration) was added to each challenge beaker. Every 24 h, five donor and fifteen recipient shrimp were netted into a new challenge beaker with fresh water and a fresh dose of C2/C7 (10 mg/L) or DMSO (0.2‰). After 72 h of cohabitation, the surviving recipient shrimps were euthanized with MS-222 and frozen at −80 °C. In order to distinguish the donor and recipient samples in this test, we chose the larger shrimp as the recipients (total length of 1.1 ± 0.2 cm, body weight of 6.9 ± 0.5 mg, mean values ± SD) and placed a sieve in the challenge beaker to separate the donor and recipient shrimps."}, "[4]": {"tested_on": "white spot syndrome virus (WSSV)", "assay": "Pre-exposure (pre-treatment) of larvae to compound before WSSV infection", "details": "for change in copy number of the viral genome, pre-exposure vs virus alone: larvae exposed up to 8 h prior to WSSV infection, 10 mg/L; for time to which shrimp death was delayed: pre-exposure 10 mg/L, untreated 100% mortality by 72 h", "method": "For pre-treatment, C2/C7 (final concentration of 10 mg/L) was applied to shrimp larvae for 1, 4, and 8 h, followed by addition of WSSV (while the coumarin compounds were simultaneously removed) at a final viral titer of 1.6 × 10^5 copies/µL. The surviving shrimps were euthanized with MS-222 and frozen at −80 °C until being processed. The copy number of viral genome in samples was quantified by RT-qPCR."}, "[5]": {"details": "WSSV-infected larvae, copy number of viral genome, 72 h, 95% CI in brackets"}}, "note": "Values joined by “and” are separate entries in the source; they are usually repeats but may differ in a detail not shown here. Equal values may be shown once."}
{"molecule": "2-amino-4-(4-chlorophenyl)-5-oxo-4H,5H-pyrano[3,2-c]chromene-3-carbonitrile [C7]", "values": [{"measurement": "copy number of the viral genome in sick or dead shrimp homogenates", "setting": "[1]", "value": "down-regulated"}, {"measurement": "EC50 (mg/L; 95% CI), median effective concentration", "setting": "[1]; [5]", "value": "< 10 mg/L and 05.727 (5.069~6.577) mg/L"}, {"measurement": "MAR (%), maximum antiviral response", "setting": "[1]; WSSV-infected larvae, viral genome copy number normalized to no treatment, low value = strong inhibition, mean ± SD", "value": "03.154 ± 1.157", "unit": "%"}, {"measurement": "inhibitory efficiency on WSSV replication", "setting": "[1]", "value": "exceeded 90%"}, {"measurement": "signs of toxicity at the saturation concentration", "setting": "[2]", "value": "No signs of toxicity were observed"}, {"measurement": "WSSV replication in naïve recipient larvae", "setting": "[3]", "value": "significantly downregulated"}, {"measurement": "change in copy number of the viral genome, pre-exposure vs virus alone", "setting": "[4]", "value": "slight changes"}, {"measurement": "time to which shrimp death was delayed", "setting": "[4]", "value": 96, "unit": "hpi"}]}
{"molecule": "Cc1ccc(C2C(C#N)=C(N)Oc3c2c(=O)oc2ccccc32)cc1", "note": "(stereo not shown) [C2, 2-amino-5-oxo-4-(p-tolyl)-4H,5H-pyrano[3,2-c]chromene-3-carbonitrile]", "values": [{"measurement": "copy number of the viral genome in sick or dead shrimp homogenates", "setting": "[1]", "value": "down-regulated"}, {"measurement": "EC50 (mg/L; 95% CI), median effective concentration", "setting": "[1]; [5]", "value": "05.993 (5.327~6.851) mg/L"}, {"measurement": "EC50", "setting": "[1]; Whispovirus xiabaidian, 72 h, read-out: EC50 (mg/L; 95% CI), median effective concentration, WSSV-infected larvae, copy number of viral genome, 72 h, 95% CI in brackets", "value": "< 10", "unit": "mg/L"}, {"measurement": "inhibitory efficiency on WSSV replication", "setting": "[1]", "value": "exceeded 90%"}, {"measurement": "signs of toxicity at the saturation concentration", "setting": "[2]", "value": "No signs of toxicity were observed"}, {"measurement": "WSSV replication in naïve recipient larvae", "setting": "[3]", "value": "significantly downregulated"}, {"measurement": "change in copy number of the viral genome, pre-exposure vs virus alone", "setting": "[4]", "value": "slight changes"}, {"measurement": "time to which shrimp death was delayed", "setting": "[4]", "value": 96, "unit": "hpi"}]}
